Key:
B16 melanoma cells = assay: Determination of melanin content in B16 cells; type: cell-based, mouse
Description: (§1) Cell Culture. The cell line B16 (mouse melanocytes, obtained from ATCC and part of SimDerma platform) was maintained in supplemented DMEM medium containing 10% FBS and 1% antibiotics penicillin/streptomycin (DMEM complete medium) at 37° C. in a humidified atmosphere of 5% CO2.
(§2) Determination of Melanin Content and Cytotoxicity in B16 cells: To analyse the effect of cannabigerol (1) on melanogenesis, B16 melanoma cells were used as a cellular assay system to evaluate the depigmenting activity in cell cultures. B16 cells (4A5) were treated for 3 days with several doses of the compounds (cannabigerol (1) or kojic acid). The cells were washed with phosphate buffer saline (PBS) at the end of the treatment and dissolved in 1 N NaOH containing 10% DMSO for 1 h at 60° C. The absorbance at 405/490 nm was measured (TriStar LB 941 Berthold Technologies, GmbH & Co. KG) and the melanin content quantified with a reference standard of synthetic melanin (Sigma-Aldrich, St Louis, Mo., USA). Cytotoxicity was measured in parallel by the MTT assay to discard that melanin inhibition is not masked by cytotoxicity. Kojic acid was used as a positive control.

tyrosinase = biological target: T1, tyrosinase (Mus musculus, UniProt P11344); assay: Measurement of tyrosinase activity in lysates of treated B16 cells (L-dopa, dopachrome formation, 475 nm); type: cell-based
T1 construct: host or cells: B16 mouse melanocytes (melanoma line)
T1 sequence (P11344 19-533): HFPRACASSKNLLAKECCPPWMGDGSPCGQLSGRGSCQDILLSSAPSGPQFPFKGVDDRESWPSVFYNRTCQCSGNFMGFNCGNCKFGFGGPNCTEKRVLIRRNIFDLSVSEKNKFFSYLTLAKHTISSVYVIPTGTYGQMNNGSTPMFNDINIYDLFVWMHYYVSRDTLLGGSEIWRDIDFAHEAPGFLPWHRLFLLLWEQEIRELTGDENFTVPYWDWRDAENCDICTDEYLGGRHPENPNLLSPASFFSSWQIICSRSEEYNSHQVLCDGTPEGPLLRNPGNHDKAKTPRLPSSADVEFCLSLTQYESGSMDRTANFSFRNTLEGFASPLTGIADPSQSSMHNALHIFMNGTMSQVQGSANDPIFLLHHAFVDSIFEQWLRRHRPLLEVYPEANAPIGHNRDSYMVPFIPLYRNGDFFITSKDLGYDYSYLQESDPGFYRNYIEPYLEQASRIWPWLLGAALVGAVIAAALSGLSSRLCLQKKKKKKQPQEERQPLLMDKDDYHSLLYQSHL
Description: as §1
Measurements of Tyrosinase Activity: To measure the tyrosinase activity of the cells, B16 cells were treated for 3 days with several doses of the compounds (cannabigerol (1) or kojic acid), then lysed by incubation at 4° C. for 30 min in lysis buffer (20 mM sodium phosphate, pH 6.8, 1% Triton X-100, 1 mM PMSF, 1 mM EDTA) containing protease inhibitors cocktail. The lysates were centrifuged at 15.000 g for 10 min to obtain the supernatant as the source of tyrosinase. The reaction mixture contained 20 mM phosphate buffer, pH 6.8, 1.25 mM L-dopa (Sigma-Aldrich). After incubation at 37° C. for 30 min, dopachrome formation was monitored by measuring absorbance at a wavelength of 475 nm in a microplate reader (TriStar LB 941 Berthold Technologies, GmbH & Co. KG). Kojic acid was used as a positive control.

B16 cells = type: cell-based, mouse
Description: as §2

| SMILES | reduction of melanin production (B16 melanoma cells; 2 mM, B16 cells, 3 days) | melanin production, dose dependence (B16 melanoma cells) | inhibition at 1 µg/mL (B16 melanoma cells; Mus musculus, B16, 72 h, read-out: inhibition of melanin production) [%] | inhibition of tyrosinase compared with positive control (tyrosinase; 1 μg/ml cannabigerol vs 2 mM kojic acid, B16 cells, 3 days) | doses at which tyrosinase activity was inhibited (tyrosinase; B16 cells treated for 3 days) [µg/mL] | inhibition compared with reference inhibitor in the used test systems (tyrosinase activity, melanin production; FIG. 2 and 3) (tyrosinase; B16 melanocytes) | cytotoxic effects (B16 cells) |
| --- | --- | --- | --- | --- | --- | --- | --- |
| O=c1cc(CO)occ1O [kojic acid, reference compound] | approx. 20% | – | – | – | – | – | – |
| CCCCCc1cc(O)c(C/C=C(\C)CCC=C(C)C)c(O)c1 [Cannabigerol (1), Cannabigerol] | – | dose dependently prevented | ~30 | as potent as the effect of 2 mM of kojic acid | ≥ 0.5 | stronger inhibition than the used reference inhibitor kojic acid | no cytotoxic effects |

Source: patent US12491145B2, “Synthesis and purification of cannabigerol and its application” (SYMRISE AG, priority 2019, dated 2025)
